The Kd is the free concentration of one partner at which half of the binding sites on the other are occupied at equilibrium, for simple one-to-one binding. The IC50 is the concentration needed to halve the response being measured.

Experimental findings from patent US11155586B2, “Cystine knot scaffold platform” (Genentech, Inc., priority 2015, dated 2021) are described below.

Read-outs that look alike come from different tables or passages of the source. Positions of bridges follow the written chain, without caps; N, C: chain ends. Residues, ends and D or L forms follow the SMILES beside them.

In one assay the target is T1, hVEGF-A (8-109) (Homo sapiens, UniProt P15692).
T1 sequence (P15692 34-135 isoform P15692-4): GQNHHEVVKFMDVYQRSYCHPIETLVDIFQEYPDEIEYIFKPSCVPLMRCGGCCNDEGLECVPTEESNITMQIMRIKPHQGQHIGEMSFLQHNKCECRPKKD
Briefly: SPR binding assay (BIACORE 3000, 37° C.). The procedure, abridged:
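VEGF-A, biotinylated and captured on streptavidin sensor or amine-coupled to CM5 at pH 5.0, to about 400 RU. Peptide concentration series in HBS-EP with 0.1% DMSO injected at […]; kinetics and affinities from 1:1 binding model fits.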
On the technique in general: In SPR one partner is held on a chip, and binding of the other changes the refractive index at the surface.

In another assay the target is T2, hVEGF-A (Homo sapiens, UniProt P15692).
T2 sequence (P15692 207-395): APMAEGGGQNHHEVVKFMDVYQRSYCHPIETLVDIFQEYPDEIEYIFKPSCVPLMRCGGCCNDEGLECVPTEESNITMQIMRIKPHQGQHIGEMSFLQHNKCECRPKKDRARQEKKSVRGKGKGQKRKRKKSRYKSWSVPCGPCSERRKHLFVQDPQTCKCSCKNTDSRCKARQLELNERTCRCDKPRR
Description: KDR-CHO VEGF assay to determine cellular IC50 (VEGF mediated Tyr phosphorylation of KDR). The format is cell-based.

Another assay has as its target T3, VEGF-A and KDR (Homo sapiens, UniProt P15692).
T3 sequence (P15692 207-395): T2 sequence (P15692 207-395)
Description: Competition ELISA, KDR-VEGF interaction. The format is binding. Here is the method:
Binding specificity of each peptide was established by competition ELISA. […] After blocking with block buffer (PBS with 0.5% BSA and 0.05% TWEEN®20) for 2 hours at room temperature, the receptor-Fc fusions or biotinylated receptors were serially diluted using assay buffer (PBS with 0.5% BSA and 0.05% TWEEN®20) and incubated for 1 hour at room temperature. […] Competition ELISA was conducted in an identical fashion as described above except after blocking, a mixture of serially diluted peptide containing a constant concentration of receptor-Fc fusion or biotinylated receptor (concentration of receptor was set to EC60) was added and incubated for 1 hour. All recombinant human proteins and antibodies were purchased from R &D Systems (Minneapolis, Minn.).

[1] abbreviates: KD, Table 37, surface plasmon resonance, VEGF-A.
Where [2] appears, read: Table 37, surface plasmon resonance, VEGF-A.
The mark [3] stands for this setting: IC50 against VEGF-A in in vitro and cellular assays, Table 25, improved potency compared to parent VEGF-CKP9.

On to `CC[C@H](C)[C@@H]1NC(=O)[C@H](CC(=O)O)NC(=O)[C@@H]2CCCN2C(=O)CNC(=O)[C@@H]2CSSC[C@H](NC(=O)[C@H](CC(=O)O)NC1=O)C(=O)N[C@@H](CC(C)C)C(=O)N[C@@H](C)C(=O)NCC(=O)N[C@H](C(=O)N[C@H](C(=O)N[C@H]1CSSC[C@@H](C(=O)NCC(=O)O)NC(=O)[C@H](CO)NC(=O)[C@H](CC(N)=O)NC(=O)[C@H](Cc3ccc(O)cc3)NC(=O)[C@H](Cc3c[nH]c4ccccc34)NC(=O)[C@H](Cc3c[nH]cn3)NC1=O)C(C)C)CSSC[C@H](NC(=O)CN)C(=O)N[C@@H](CC(=O)O)C(=O)N[C@@H](C(C)C)C(=O)N[C@@H](CCSC)C(=O)N[C@@H](CCC(N)=O)C(=O)N1CCC[C@H]1C(=O)N[C@@H](Cc1ccc(O)cc1)C(=O)N[C@@H](Cc1c[nH]c3ccccc13)C(=O)NCC(=O)N2` [VEGF_CKP9.63.12] (H-GCDVMQPYWGCGPDIDCLAGCVCHWYNSCG-OH; disulfide 2-21, 11-17, 23-29 (inferred); N-terminus and C-terminus assumed), for which the kd on hVEGF-A (8-109) (hVEGF-A (8-109), Table 29) is reported as 0.10; on hVEGF-A (8-109) (hVEGF-A WT) it was 0.0096; on hVEGF-A (8-109) (human 8-109, Table 30) it was 2.50 × 10^−2. In addition, the “FOLD IMPROVEMENT RELATIVE TO VARIANT 9.54.90” value on hVEGF-A (Table 36, from cellular IC50) worked out at 0.74.
`CC[C@H](C)[C@@H]1NC(=O)[C@H](CC(N)=O)NC(=O)[C@@H](NC(=O)CN)CSSC[C@@H](C(=O)N[C@H](C(=O)N[C@H]2CSSC[C@@H](C(=O)NCC(=O)O)NC(=O)[C@H](CO)NC(=O)[C@H](CCC(N)=O)NC(=O)[C@H](Cc3ccc(O)cc3)NC(=O)[C@H](Cc3ccc(O)cc3)NC(=O)[C@H](CCC(N)=O)NC2=O)C(C)C)NC(=O)CNC(=O)[C@H](C)NC(=O)[C@H](CC(C)C)NC(=O)[C@@H]2CSSC[C@H](NC(=O)CNC(=O)[C@H](Cc3c[nH]c4ccccc34)NC(=O)[C@H](Cc3ccccc3)NC(=O)[C@@H]3CCCN3C(=O)[C@H](CC(C)C)NC(=O)[C@H](CCSC)NC1=O)C(=O)NCC(=O)N[C@@H](CCCNC(=N)N)C(=O)N[C@@H](CC(=O)O)C(=O)N[C@@H](Cc1ccccc1)C(=O)N[C@@H](CCC(=O)O)C(=O)N2` [VEGF_CKP9.54.90] (H-GCNIMLPFWGCGRDFECLAGCVCQYYQSCG-OH; disulfide 2-21, 11-17, 23-29; N-terminus and C-terminus assumed): the Kd was determined as 0.37 nM on hVEGF-A (8-109) (KD (nM), hVEGF-A WT); 0.87 nM at hVEGF-A (8-109) (KD (nM), human 8-109, Table 30); 0.4 ± 0.08 nM at hVEGF-A (8-109) (setting [1]). Also, the kd at hVEGF-A (8-109) (setting [2]) is 0.17; on hVEGF-A (8-109) (hVEGF-A WT) it was 0.0300; at hVEGF-A (8-109) (human 8-109, Table 30) it was 4.05 × 10^−2. Further, the IC50 at VEGF-A and KDR is 0.2 nM; at hVEGF-A (Cellular IC50 (nM), Table 36, loop 3/loop 4 variants), 1.35 nM; against hVEGF-A (Cellular IC50, Table 28), 1.35 nM; on hVEGF-A (Table 38, F8Y and/or unnatural amino acid variants, read-out: Cellular IC50) it was 1.35 nM. Besides, the “disruption of the interaction between VEGF-A and KDR” value on VEGF-A and KDR (FIGS. 2A and 2B) is “disrupts”. Besides, the “FOLD IMPROVEMENT RELATIVE TO VARIANT 9.54.90” value at hVEGF-A (Table 36, from cellular IC50) is 1; at hVEGF-A (Table 38, from cellular IC50) it was 1.
`CC[C@H](C)[C@@H]1NC(=O)[C@H](CC(N)=O)NC(=O)[C@@H](NC(=O)CN)CSSC[C@@H](C(=O)N[C@H](C(=O)N[C@H]2CSSC[C@@H](C(=O)NCC(=O)O)NC(=O)[C@H](CO)NC(=O)[C@H](CCC(N)=O)NC(=O)[C@H](Cc3ccc(O)cc3)NC(=O)[C@H](Cc3ccc(O)cc3)NC(=O)[C@H](CCC(N)=O)NC2=O)C(C)C)NC(=O)CNC(=O)[C@H](C)NC(=O)[C@H](CC(C)C)NC(=O)[C@@H]2CSSC[C@H](NC(=O)CNC(=O)[C@H](Cc3c[nH]c4ccccc34)NC(=O)[C@H](Cc3ccccc3)NC(=O)[C@@H]3CCCN3C(=O)[C@H](CC(C)C)NC(=O)[C@H](CCSC)NC1=O)C(=O)N[C@@H](CCCCN)C(=O)N[C@@H](CCC(N)=O)C(=O)N[C@@H](CC(=O)O)C(=O)N[C@@H](CO)C(=O)N[C@@H](CC(=O)O)C(=O)N2` [VEGF_CKP9.54] (H-GCNIMLPFWGCKQDSDCLAGCVCQYYQSCG-OH; disulfide 2-21, 11-17, 23-29 (inferred); N-terminus and C-terminus assumed): the Kd at hVEGF-A (8-109) (KD (nM), hVEGF-A WT) stood at 55 nM; on hVEGF-A (8-109) (KD (nM), human 8-109, Table 30), 176 nM; on hVEGF-A (8-109) (setting [1]), 44 ± 6 nM. Moreover, the kd at hVEGF-A (8-109) (setting [2]) is 2.3; on hVEGF-A (8-109) (hVEGF-A WT), 0.2349; at hVEGF-A (8-109) (human 8-109, Table 30), 2.18 × 10^−1. Also, the 50% inhibitory concentration (IC50) was 5.8 nM at VEGF-A and KDR; 188 nM against hVEGF-A (Cellular IC50, Table 25); 188 nM against hVEGF-A (Cellular IC50, Table 28); 100 to 200 nM on hVEGF-A (setting [3]).
Consider `CSCC[C@@H]1NC(=O)[C@H](C(C)C)NC(=O)[C@H](CC(=O)O)NC(=O)[C@@H](NC(=O)CN)CSSC[C@@H](C(=O)N[C@H](C(=O)N[C@H]2CSSC[C@@H](C(=O)NCC(=O)O)NC(=O)[C@H](CO)NC(=O)[C@H](CC(N)=O)NC(=O)[C@H](Cc3ccc(O)cc3)NC(=O)[C@H](Cc3c[nH]c4ccccc34)NC(=O)[C@H](Cc3c[nH]cn3)NC2=O)C(C)C)NC(=O)CNC(=O)[C@H](C)NC(=O)[C@H](CC(C)C)NC(=O)[C@@H]2CSSC[C@H](NC(=O)CNC(=O)[C@H](Cc3c[nH]c4ccccc34)NC(=O)[C@H](Cc3ccc(O)cc3)NC(=O)[C@@H]3CCCN3C(=O)[C@H](CCC(N)=O)NC1=O)C(=O)N[C@@H](CCCCN)C(=O)N[C@@H](CCC(N)=O)C(=O)N[C@@H](CC(=O)O)C(=O)N[C@@H](CO)C(=O)N[C@@H](CC(=O)O)C(=O)N2` [VEGF_CKP9.63] (H-GCDVMQPYWGCKQDSDCLAGCVCHWYNSCG-OH; disulfide 2-21, 11-17, 23-29 (inferred); N-terminus and C-terminus assumed), for which the Kd turned out to be 100 nM at hVEGF-A (8-109) (KD (nM), hVEGF-A WT); 281 nM on hVEGF-A (8-109) (KD (nM), human 8-109, Table 30); 100 nM at hVEGF-A (8-109) (KD, hVEGF-A (8-109), Table 29). Besides, the kd is recorded as 1.6 on hVEGF-A (8-109) (hVEGF-A (8-109), Table 29); 0.1624 at hVEGF-A (8-109) (hVEGF-A WT); 1.81 × 10^−1 at hVEGF-A (8-109) (human 8-109, Table 30). For the same molecule, the ka on hVEGF-A (8-109) (human 8-109, Table 30) is on record as 6.62 × 10^5. In addition, the IC50 at VEGF-A and KDR is 10.8 nM; against hVEGF-A (Cellular IC50, Table 25), 140 nM; on hVEGF-A (Cellular IC50, Table 28) it was 140 nM; on hVEGF-A (setting [3]) it was 100 to 200 nM.
